Data as given in patent US7015351B2, “Reaction systems for making N-(phosphonomethyl) glycine compounds” (Monsanto Technology LLC, priority 2000, dated 2006).

Key:
[1] = cited from earlier work
[2] = Solubility of N-(phosphonomethyl)glycine product in water / aqueous reaction mixture; assay type: physicochemical; settings: oxidation operating temperatures from about 95 to about 105° C.

Structure (SMILES)	maximum N-(phosphonomethyl)glycine solubility ([1]; aqueous reaction mixture, temperatures of from about 60° C. to 90° C.)	solubility relative to the free acid ([1]; at 25° C.)	concentration at which the product remains soluble [2]
O=C(O)CNCP(=O)(O)O [N-(phosphonomethyl)glycine]	less than 6.5%	–	–
CC(C)N.O=C(O)CNCP(=O)(O)O [isopropylamine salt of N-(phosphonomethyl)glycine]	–	roughly 40 times	≥ 50 % by weight
